Earlier results on one compound are cited in patent US12708634B2, “Psilocybin derived compositions and methods using same” (1242753 Ontario Inc., priority 2021, dated 2026).

Data set [1] concerns patients with advanced-stage cancer. The note with it: oral dose 0.2 mg/kg.
Data set [2] concerns patients with treatment-resistant major depression. The note with it: two oral doses (10 mg followed by 25 mg a week later).

Take `CN(C)CCc1c[nH]c2cccc(OP(=O)(O)O)c12` [psilocybin]: the adverse events result in data set [1] and in data set [2] was “no clinically significant adverse events” each time.
